Legend:
[1] = target: human orexin-2 receptor (hOX2R) (Homo sapiens (Human), UniProt O43614); test: FLIPR Ca2+ Flux Assay, CHO cells expressing human orexin-2 receptor; format: cell-based; settings: agonist Ala-6,12 human orexin-A 70 pM
Experimental: Briefly, for intracellular calcium measurements, Chinese hamster ovary (CHO) cells expressing the orexin-1 receptor (e.g., rat or human) or the orexin-2 receptor (e.g., rat or human), are grown in Iscove's modified DMEM containing 2 mM L-glutamine, […], 1% hypoxanthine-thymidine supplement, 100 U/ml penicillin, 100 μg/ml streptomycin and 10% heat-inactivated fetal calf serum (FCS). The cells are seeded at approximately 20,000 cells per well into 384-well clear bottom sterile plates coated with poly-D-lysine. The seeded plates are incubated overnight at 37° C. and 5% CO2. Human ala-6,12 orexin-A can be used as the agonist and prepared as a 1 mM stock solution in 1% bovine serum albumin (BSA) and diluted in assay buffer (HBSS containing 20 mM HEPES, 0.1% BSA and 2.5 mM probenecid, pH7.4) for use in the assay at a final concentration of 70 pM. Test compounds are prepared as 10 mM stock solution in DMSO, then diluted in 384-well plates, first in DMSO, then in assay buffer. On the day of the assay, cells are washed 3 times with 100 μl assay buffer and then incubated for 60 minutes (37° C., 5% CO2) in 60 μl assay buffer containing 1 μM Fluo-4 AM ester, 0.02% pluronic acid, and 1% BSA. The dye loading solution is then aspirated and cells are washed 3 times with 100 μl assay buffer. 30 μl of that same buffer is left in each well. Within the Fluorescent Imaging Plate Reader (FLIPR, Molecular Devices), test compounds are added to the plate in a volume of 25 μl, incubated for 5 minutes, and then 25 μl of agonist is added. Fluorescence is measured for each well at 1 second intervals for 5 minutes, and the height of each fluorescence peak is compared to the height of the fluorescence peak induced by 70 pM of agonist ala-6,12 orexin-A with buffer in place of test compound. IC50 value for the test compound is determined to be the concentration of compound needed to inhibit 50% of the agonist response. Alternatively, compound potency can be assessed using a radioligand binding assay (described in Bergman et. al., Bioorg. Med. Chem. Lett. 2008, 18:1425-1430) in which the inhibition constant (Ki) is determined in membranes prepared from CHO cells expressing either the OX1 or OX2 receptor. The intrinsic orexin receptor antagonist activity of a compound of the present invention may be determined by these assays. […]

[2] = target: human orexin-1 receptor (hOX1R) (Homo sapiens (Human), UniProt O43613); test: FLIPR Ca2+ Flux Assay, CHO cells expressing human orexin-1 receptor; format: cell-based; settings: agonist Ala-6,12 human orexin-A 70 pM
human orexin-1 receptor (hOX1R), sequence (O43613 whole entry): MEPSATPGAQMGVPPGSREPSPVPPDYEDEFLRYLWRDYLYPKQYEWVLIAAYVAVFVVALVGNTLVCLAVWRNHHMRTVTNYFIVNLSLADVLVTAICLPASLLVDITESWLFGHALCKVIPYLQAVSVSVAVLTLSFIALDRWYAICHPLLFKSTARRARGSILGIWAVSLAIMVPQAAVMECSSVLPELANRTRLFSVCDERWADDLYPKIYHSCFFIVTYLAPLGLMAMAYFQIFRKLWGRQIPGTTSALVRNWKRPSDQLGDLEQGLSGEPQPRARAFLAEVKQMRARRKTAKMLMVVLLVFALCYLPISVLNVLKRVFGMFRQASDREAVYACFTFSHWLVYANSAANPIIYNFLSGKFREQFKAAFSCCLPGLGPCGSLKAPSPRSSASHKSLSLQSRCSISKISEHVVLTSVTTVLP
From the text: The utility of the compounds in accordance with the present invention as orexin receptor OX1R and/or OX2R antagonists may be readily determined without undue experimentation by methodology well known in the art, including the “FLIPR Ca^2+ Flux Assay” (Okumura et al., Biochem. Biophys. Res. Comm. 2001, 280:976-981). Briefly, for intracellular calcium measurements, Chinese hamster ovary (CHO) cells expressing the orexin-1 receptor (e.g., rat or human) or the orexin-2 receptor (e.g., rat or human), are grown in Iscove's modified DMEM containing 2 mM L-glutamine, […], 1% hypoxanthine-thymidine supplement, 100 U/ml penicillin, 100 μg/ml streptomycin and 10% heat-inactivated fetal calf serum (FCS). The cells are seeded at approximately 20,000 cells per well into 384-well clear bottom sterile plates coated with poly-D-lysine. The seeded plates are incubated overnight at 37° C. and 5% CO2. Human ala-6,12 orexin-A can be used as the agonist and prepared as a 1 mM stock solution in 1% bovine serum albumin (BSA) and diluted in assay buffer (HBSS containing 20 mM HEPES, 0.1% BSA and 2.5 mM probenecid, pH7.4) for use in the assay at a final concentration of 70 pM. Test compounds are prepared as 10 mM stock solution in DMSO, then diluted in 384-well plates, first in DMSO, then in assay buffer. On the day of the assay, cells are washed 3 times with 100 μl assay buffer and then incubated for 60 minutes (37° C., 5% CO2) in 60 μl assay buffer containing 1 μM Fluo-4 AM ester, 0.02% pluronic acid, and 1% BSA. The dye loading solution is then aspirated and cells are washed 3 times with 100 μl assay buffer. 30 μl of that same buffer is left in each well. Within the Fluorescent Imaging Plate Reader (FLIPR, Molecular Devices), test compounds are added to the plate in a volume of 25 μl, incubated for 5 minutes, and then 25 μl of agonist is added. Fluorescence is measured for each well at 1 second intervals for 5 minutes, and the height of each fluorescence peak is compared to the height of the fluorescence peak induced by 70 pM of agonist ala-6,12 orexin-A with buffer in place of test compound. IC50 value for the test compound is determined to be the concentration of compound needed to inhibit 50% of the agonist response. Alternatively, compound potency can be assessed using a radioligand binding assay (described in Bergman et. al., Bioorg. Med. Chem. Lett. 2008, 18:1425-1430) in which the inhibition constant (Ki) is determined in membranes prepared from CHO cells expressing either the OX1 or OX2 receptor. The intrinsic orexin receptor antagonist activity of a compound of the present invention may be determined by these assays.

human orexin-2 receptor (hOX2R), sequence (O43614 whole entry): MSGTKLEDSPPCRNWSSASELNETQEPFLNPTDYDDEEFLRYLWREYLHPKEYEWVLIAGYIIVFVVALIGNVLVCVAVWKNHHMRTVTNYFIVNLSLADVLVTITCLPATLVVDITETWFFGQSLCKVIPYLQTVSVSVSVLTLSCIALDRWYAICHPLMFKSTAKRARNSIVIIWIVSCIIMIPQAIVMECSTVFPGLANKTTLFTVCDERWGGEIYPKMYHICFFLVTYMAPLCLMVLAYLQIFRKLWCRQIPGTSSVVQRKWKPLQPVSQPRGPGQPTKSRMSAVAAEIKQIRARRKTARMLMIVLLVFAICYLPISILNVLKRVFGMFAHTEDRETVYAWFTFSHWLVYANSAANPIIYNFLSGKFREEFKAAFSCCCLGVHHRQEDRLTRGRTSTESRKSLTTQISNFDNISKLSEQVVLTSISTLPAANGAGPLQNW

SMILES	IC50 [1]	IC50 [2]
CCOC(=O)c1cnc([C@@H]2CC[C@@H](C)N(C(=O)c3ccccc3-n3nccn3)C2)s1 [Example 1, Ethyl 2-((3R,6R)-1-(2-(2H-1,2,3-triazol-2-yl)benzoyl)-6-methylpiperidin-3-yl)thiazole-5-carboxylate]	1510 nM	> 10000 nM
C[C@@H]1CC[C@@H](c2ncc(C(C)(C)O)s2)CN1C(=O)c1ccccc1-n1nccn1 [Example 2, (2-(2H-1,2,3-Triazol-2-yl)phenyl)((2R,5R)-5-(5-(2-hydroxypropan-2-yl)thiazol-2-yl)-2-methylpiperidin-1-yl)methanone]	67 nM	> 10000 nM
C[C@@H]1CC[C@H](c2ncc(C(C)(C)O)s2)CN1C(=O)c1ccccc1-n1nccn1 [Example 3, (2-(2H-1,2,3-Triazol-2-yl)phenyl)((2R,5S)-5-(5-(2-hydroxypropan-2-yl)thiazol-2-yl)-2-methylpiperidin-1-yl)methanone]	2650 nM	> 10000 nM
C[C@@H]1CC[C@@H](c2cnc(C(C)(C)O)s2)CN1C(=O)c1ccccc1-n1nccn1 [Example 4, (2-(2H-1,2,3-triazol-2-yl)phenyl)((2R,5R)-5-(2-(2-hydroxypropan-2-yl)thiazol-5-yl)-2-methylpiperidin-1-yl)methanone]	50 nM	> 10000 nM
C[C@@H]1CC[C@@H](c2nc(C(C)(C)O)cs2)CN1C(=O)c1ccccc1-n1nccn1 [Example 5]	17 nM	2250 nM
C[C@@H]1CC[C@@H](c2nc([C@H](O)C(F)(F)F)cs2)CN1C(=O)c1ccccc1-n1nccn1 [Example 6, (2-(2H-1,2,3-triazol-2-yl)phenyl)((2R,5R)-2-methyl-5-(4-((S)-2,2,2-trifluoro-1-hydroxyethyl)thiazol-2-yl)piperidin-1-yl)methanone]	165 nM	10000 nM
C[C@@H]1CC[C@@H](c2nc([C@@H](O)C(F)(F)F)cs2)CN1C(=O)c1ccccc1-n1nccn1 [Example 7, (2-(2H-1,2,3-triazol-2-yl)phenyl)((2R,5R)-2-methyl-5-(4-((R)-2,2,2-trifluoro-1-hydroxyethyl)thiazol-2-yl)piperidin-1-yl)methanone]	15 nM	360 nM
C[C@@H]1CC[C@@H](c2nc([C@@H](O)C(F)F)cs2)CN1C(=O)c1ccccc1-n1nccn1 [Example 8]	133 nM	> 10000 nM
C[C@@H]1CC[C@@H](c2nc([C@H](O)C(F)F)cs2)CN1C(=O)c1ccccc1-n1nccn1 [Example 9]	9.4 nM	520 nM
C[C@@H]1CC[C@@H](c2nc(C(C)(C)O)cs2)CN1C(=O)c1ccsc1-n1nccn1 [Example 10, (2-(2H-1,2,3-triazol-2-yl)thiophen-3-yl)((2R,5R)-5-(4-(2-hydroxypropan-2-yl)thiazol-2-yl)-2-methylpiperidin-1-yl)methanone]	19 nM	7400 nM
C[C@@H]1CC[C@@H](c2nc(C(C)(C)O)cs2)CN1C(=O)c1ccccc1C1(C#N)CC1 [Example 11, 1-(2-((2R,5R)-5-(4-(2-Hydroxypropan-2-yl)thiazol-2-yl)-2-methylpiperidine-1-carbonyl)phenyl)cyclopropanecarbonitrile]	15 nM	950 nM
COC(=O)c1ccccc1C(=O)N1C[C@H](c2nc(C(C)(C)O)cs2)CC[C@H]1C [Example 12, Methyl 2-((2R,5R)-5-(4-(2-hydroxypropan-2-yl)thiazol-2-yl)-2-methylpiperidine-1-carbonyl)benzoate]	44 nM	> 10000 nM
C[C@@H]1CC[C@@H](c2csc(C(C)(C)O)n2)CN1C(=O)c1ccccc1-n1ncnn1 [Example 29, (2-(2H-Tetrazol-2-yl)phenyl)((2R,5R)-5-(2-(2-hydroxypropan-2-yl)thiazol-4-yl)-2-methylpiperidin-1-yl)methanone]	15 nM	–
